# From patent US20250353873A1, “COMPOUNDS AND METHODS FOR MODULATING APOE EXPRESSION” (Ionis Pharmaceuticals, Inc., priority 2024, published 2025)
# Where “and” joins values, the source holds several entries; their conditions need not be identical. Equal entries are not always repeated. Marks after values point to notes of the source that are not given here. Strand notation (5' to 3'): a small letter for the sugar, then the base; units joined by * are phosphorothioate-linked, units joined directly phosphodiester-linked; [ ] holds rarer units or linkages, { } end groups; capitals alone tell only the bases. [ms] = mesyl phosphoramidate linkage; e = 2'-O-(2-methoxyethyl) (MOE); k = constrained ethyl (cEt); [5mC] = 5-methylcytosine; d = 2'-deoxy (DNA)
# Legend:
# human APOE RNA [1] = assay: Dose-dependent reduction of human APOE RNA in HepG2 cells, electroporation, 20,000 cells per well, normalized to PPIA (Example 4, Table 11); assay type: cell-based; details: HepG2 cells, 20,000 cells per well, approximately 24 hours
# Protocol: HepG2 cells plated at a density of 20,000 cells per well were treated by electroporation with various concentrations of modified oligonucleotide as specified in the tables below. […] APOE RNA levels were measured using the human primer probe set RTS3073 (described herein above). APOE RNA levels were normalized to human PPIA. Human PPIA was amplified using human primer probe set mk_cycloA_2nd (forward sequence […], designated herein as SEQ ID NO: 13; reverse sequence […], designated herein as SEQ ID NO: 14; probe sequence […], designated herein as SEQ ID NO: 15). Normalized results are presented in the table below as percent APOE RNA, relative to the amount of APOE RNA in untreated control cells (% UTC). The half maximal inhibitory concentration (IC50) of each modified oligonucleotide was calculated in GraphPad Prism 10 (GraphPad Software, San Diego, CA) and is also presented in the table below.
# human APOE RNA [2] = assay: Duration of action study in APOE C57BL/6NTac-Apoeem7250 knock-in mice (Example 18); assay type: in vivo
# Protocol: Modified oligonucleotides described above were tested in the APOE C57BL/6NTac-Apoeem7250 knock-in model (described above).
# Each mouse received a single intracerebroventricular (ICV) bolus of 300 μg of modified oligonucleotide. A group of 4-6 mice received a single ICV bolus with PBS as a negative control.
# Mice were sacrificed at various timepoints as indicated in the table below and RNA was extracted from cortical brain tissue and spinal cord for quantitative real-time RT-PCR analysis of RNA expression of APOE using primer probe set RTS3073 (described herein above). APOE RNA levels were normalized to mouse Ppia. Mouse Ppia was amplified using primer probe set m_cyclo24 (described herein above). Results are presented as percent human APOE RNA relative to the amount of human APOE RNA in PBS treated animals, (% control). Each experiment is identified in separate tables below.
# [3] = 196 days post-dose, single ICV bolus 300 μg, APOE knock-in mice, normalized to mouse Ppia, relative to PBS
# [4] = 224 days post-dose, single ICV bolus 300 μg, APOE knock-in mice, normalized to mouse Ppia, relative to PBS
# [5] = 285 days post-dose, single ICV bolus 300 μg, APOE knock-in mice, normalized to mouse Ppia, relative to PBS
substance,measurement,setting,value
Aks^mCeoTeoTesGesGksTdsGdzAdzAdzTds^mCdsTdsTdsTdsAdzTksTksAesAe (kA*e[5mC]eTeT*eG*kG*dT*dG[ms]dA[ms]dA[ms]dT*d[5mC]*dT*dT*dT*dA[ms]kT*kT*eA*eA) [Compound No. 1809635],APOE RNA (% UTC) 5 nM,"human APOE RNA [1]; PPIA-normalized, 5 nM",105 % UTC
same,APOE RNA (% UTC) 13 nM,"human APOE RNA [1]; PPIA-normalized, 13 nM",87 % UTC
same,APOE RNA (% UTC) 33 nM,"human APOE RNA [1]; PPIA-normalized, 33 nM",78 % UTC
same,APOE RNA (% UTC) 82 nM,"human APOE RNA [1]; PPIA-normalized, 82 nM",66 % UTC
same,APOE RNA (% UTC) 205 nM,"human APOE RNA [1]; PPIA-normalized, 205 nM",55 % UTC
same,APOE RNA (% UTC) 512 nM,"human APOE RNA [1]; PPIA-normalized, 512 nM",31 % UTC
same,"APOE RNA (% UTC) 1,280 nM","human APOE RNA [1]; PPIA-normalized, 1,280 nM",18 % UTC
same,"APOE RNA (% UTC) 3,200 nM","human APOE RNA [1]; PPIA-normalized, 3,200 nM",16 % UTC
same,"APOE RNA (% UTC) 8,000 nM","human APOE RNA [1]; PPIA-normalized, 8,000 nM",4 % UTC
same,"APOE RNA (% UTC) 20,000 nM","human APOE RNA [1]; PPIA-normalized, 20,000 nM",2 % UTC
same,IC50,"human APOE RNA [1]; reduction of human APOE RNA, PPIA-normalized",210 nM
same,APOE RNA (% control) Cortex,"human APOE RNA [2]; 300 μg ICV, 28 days post-dose",29 % control and 25 % control
same,APOE RNA (% control) Cortex,"human APOE RNA [2]; 300 μg ICV, 56 days post-dose",19 % control
same,APOE RNA (% control) Cortex,"human APOE RNA [2]; 300 μg ICV, 112 days post-dose",24 % control and 35 % control
same,APOE RNA (% control) Cortex,"human APOE RNA [2]; 300 μg ICV, 140 days post-dose",52‡ % control
same,APOE RNA (% control) Cortex,"human APOE RNA [2]; 300 μg ICV, 168 days post-dose",35 % control
same,APOE RNA (% control) Cortex,"human APOE RNA [2]; 300 μg ICV, 342 days post-dose",68 % control
same,APOE RNA (% control) Cortex,human APOE RNA [2]; [3],50 % control
same,APOE RNA (% control) Cortex,human APOE RNA [2]; [4],55 % control
same,APOE RNA (% control) Cortex,human APOE RNA [2]; [5],67 % control
same,APOE RNA (% control) Spinal Cord,"human APOE RNA [2]; 300 μg ICV, 28 days post-dose",11 % control and 18 % control
same,APOE RNA (% control) Spinal Cord,"human APOE RNA [2]; 300 μg ICV, 56 days post-dose",11 % control
same,APOE RNA (% control) Spinal Cord,"human APOE RNA [2]; 300 μg ICV, 112 days post-dose",13 % control and 14 % control
same,APOE RNA (% control) Spinal Cord,"human APOE RNA [2]; 300 μg ICV, 140 days post-dose",27‡ % control
same,APOE RNA (% control) Spinal Cord,"human APOE RNA [2]; 300 μg ICV, 168 days post-dose",26 % control
same,APOE RNA (% control) Spinal Cord,"human APOE RNA [2]; 300 μg ICV, 342 days post-dose",36 % control
same,APOE RNA (% control) Spinal Cord,human APOE RNA [2]; [3],33 % control
same,APOE RNA (% control) Spinal Cord,human APOE RNA [2]; [4],26 % control
same,APOE RNA (% control) Spinal Cord,human APOE RNA [2]; [5],41 % control
